# What was measured:
# Assay type in all cases: in vivo
# [1] = system: male monkey (crab-eating monkey); test: Intraocular pressure lowering action in monkey under consciousness; conditions: ocular instillation 30 μL, 10 μg/mL
# Description: (2-3) Intraocular Pressure Lowering Action in Monkey Under Consciousness
# To a left eye of a male monkey (crab-eating monkey) under consciousness, 30 μL of a solution obtained by adjusting a test substance with using the same base as that described above was ocular instillation-administered and, to a right eye, 30 μL of a solution of only a base as a control was ocular instillation-administered, respectively. An intraocular pressure after administration was measured with time from administration initiation until 24 hours. In case of measurement of an intraocular pressure, a crab-eating monkey was fixed on a monkey chair, and the monkey was anesthetized by ocular instillation-administering an ocular surface anesthetic (Benoxil eye drops 0.4% Santen Pharmaceutical Co., Ltd.). After mounting of a blepharostat (Handaya Co., Ltd.), an intraocular pressure of both eyes was measured (5 to 8 examples per group) with using a pneumatic applanation flat tonometer (Model 30 Classic, REICHERT). A difference in an intraocular pressure value between control eyes and eyes to which a test substance had been administered, was calculated as an intraocular pressure lowering rate with using the following equation, and sustainability of intraocular eye lowering action was assessed using a maximum intraocular pressure lowering rate during measurement and an intraocular pressure lowering rate after 24 hours. As the test substance, the Comparative Compound B, and the compounds of Example 16 (3), Example 16 (25) and Example 16 (35) were used, and an administration dose was 10 μg/mL in all cases.
# [2] = system: male rabbit (NewZealandWhite); test: Aqueous humor protein concentration in rabbit after ocular instillation; conditions: ocular instillation 30 μL of 0.1% (w/v), aqueous humor collected 0 to 8 hours
# Description: (2-2) Assessment of Ocular Stimulating Property and Aqueous Humor Protein Concentration
# To one eye of a male rabbit (NewZealandWhite, 2.0 to 3.0 kg), 30 μL of the compound of Example 16 (35), the compound of Example 16 (3) and the compound of Example 16 (25) which had been adjusted to 0.1% (w/v) with a base (containing citrate buffer pH 6.5, 0.5% polysorbate 80, 1% propylene glycol, 0.01% benzalkonium chloride), was ocular-instilled respectively. Thereafter, an aqueous humor in anterior chamber after 0, 1, 2, 4, 6 and 8 hours from ocular instillation was collected, and a protein concentration in the humor was measured. As a comparative compound, the aforementioned methyl ester of the compound of Example 12 described in Patent Literature 2 (i.e. compound of Example 10 described in Patent Literature 2) (hereinafter, abbreviated as Comparative Compound B in some cases) was used.
# Regarding any test compound, a dose until a dissolution limit (150 to 1000 μg/mL) was administered and action of each active body was assessed.
# [3] = system: male dog (TOYO Beagle); test: Intraocular pressure lowering action in dog after ocular instillation
# Description: As can be easily understood by a person skilled in the art, in an in vivo test, since regarding all test compounds, carboxylic acid which is an active body has bad corneal permeability, pharmacological action of the active body was assessed by ocular instillation administration of a compound which had been converted into an ester such as a methyl ester, an ethyl ester, an isopropyl ester etc. In addition, in a group of the compound of the present inventions, by ocular instillation administration of the ester body in an experimental animal (rabbit, dog etc.) by which pharmacological action is confirmed below and, thereafter, measurement of a drug concentration of carboxylic acid in an aqueous humor, it was confirmed that the ester is rapidly converted into corresponding carboxylic acid.
# (2-1) Intraocular Pressure Lowering Action
# To one eye of a male dog (TOYO Beagle) which had been sufficiently acclimated in advance, 30 μL of each test compound (the compound of Example 16 (35), the compound of Example 16 (3) and the compound of Example 16 (25)) which had been adjusted with a base (containing citrate buffer pH 6.5, 0.5% polysorbate 80, 1% propylene glycol, […]), was ocular-instilled respectively. The other eye was not treated. As a positive control compound, latanoprost which is the known compound was used.
# Thereafter, an ocular surface anesthetic (Benoxil eye drops 0.4%, Santen Pharmaceutical Co., Ltd.) was subjected to ocular instillation to locally anesthetize eyes, and an intraocular pressure of each test compound before ocular instillation and after 2, 4, 6, 8, and 24 hours from ocular instillation was measured. An intraocular pressure was measured using a pneumatic applanation flat tonometer (Model 30 Classic, REICHERT). An intraocular pressure lowering rate (%) was calculated by the following equation.
smiles,measurement,setting,value
"CCOC(=O)CCC[C@H]1CC[C@@H]2[C@@H](/C=C/[C@@H](O)COc3ccccc3)[C@H](O)C[C@@H]2OC1 [Example 16 (35), Ethyl 4-{(3S,5aR,6R,7R,8aS)-7-hydroxy-6-[(1E,3R)-3-hydroxy-4-phenoxy-1-buten-1-yl]octahydro-2H-cyclopenta[b]oxepin-3-yl}butanoate]",Intraocular pressure lowering rate (%) after 24 hours,[1]; after 24 hours,14.9 ± 4.7%
same,Maximum intraocular pressure lowering rate (%),[1]; maximum up to 24 hours,19.2 ± 2.6%
same,action of raising a protein concentration in an aqueous humor,[2],no action of raising a protein concentration in an aqueous humor
same,Maximum of intraocular pressure lowering rate (%),"[3]; ocular instillation 30 μL, administration dose 10 μg/mL, maximum among 2, 4, 6, 8 and 24 hours",31%
same,intraocular pressure lowering action as compared with latanoprost,"[3]; ocular instillation, in words",stronger intraocular pressure lowering action
